The test system of this assay is DSS-induced colitis. In words: DSS-induced colitis in mice. Format: in vivo, C57BL/6 mice. As to conditions: 3% DSS in water, daily gavage for 7 days.

Regarding `Nc1ccc(O)c(C(=O)O)c1` [5-ASA, 5-Aminosalicylic acid], the weight loss entry was “does not reduce the severity of weight loss”. The “Intestinal myeloperoxidase (MPO) activity” value (colon) is recorded as “has no effect on the basal MPO levels”.
